According to ChEMBL document CHEMBL1201862, “PubChem BioAssay data set” (2004):
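Method: 48-hour compound exposure of cells in 96-well plates, five concentrations, linear interpolation of endpoints. GI50 marks 50% less growth.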 The source made the active and inactive calls. Cut-off read from the data, not from the text of the source: active = GI50 up to about 1.1 µM and inactive = higher.

Tests used:
Assay in all cases: NCI tumour cell line growth inhibition, 48 h
NCI-H226 = test system: NCI-H226
MDA-N = test system: MDA-N
SNB-75 = test system: SNB-75
MDA-MB-435 = test system: MDA-MB-435
NCI-H460 = test system: NCI-H460
ACHN = test system: ACHN
SNB-19 = test system: SNB-19
SK-MEL-2 = test system: SK-MEL-2
SK-MEL-28 = test system: SK-MEL-28
OVCAR-8 = test system: OVCAR-8
COLO 205 = test system: COLO 205
HOP-92 = test system: HOP-92
UACC-257 = test system: UACC-257
RXF 393 = test system: RXF 393
SW-620 = test system: SW-620
DU-145 = test system: DU-145
SF-268 = test system: SF-268
HL-60 = test system: HL-60
PC-3 = test system: PC-3
Hs-578T = test system: Hs-578T
Malme-3M = test system: Malme-3M
MCF7 = test system: MCF7
HOP-62 = test system: HOP-62
UO-31 = test system: UO-31
U-251 = test system: U-251
MOLT-4 = test system: MOLT-4
KM12 = test system: KM12
T47D = test system: T47D
NCI/ADR-RES = test system: NCI/ADR-RES
HCC 2998 = test system: HCC 2998
SK-MEL-5 = test system: SK-MEL-5
RPMI-8226 = test system: RPMI-8226
TK-10 = test system: TK-10
OVCAR-5 = test system: OVCAR-5
786-0 = test system: 786-0
M14 = test system: M14
EKVX = test system: EKVX
SK-OV-3 = test system: SK-OV-3
CAKI-1 = test system: CAKI-1
SF-539 = test system: SF-539
BT-549 = test system: BT-549
SN12C = test system: SN12C
A498 = test system: A498
NCI-H522 = test system: NCI-H522
HT-29 = test system: HT-29
IGROV-1 = test system: IGROV-1
OVCAR-4 = test system: OVCAR-4
A549 = test system: A549
MDA-MB-231 = test system: MDA-MB-231
HCT-116 = test system: HCT-116
SR = test system: SR
LOX IMVI = test system: LOX IMVI
OVCAR-3 = test system: OVCAR-3
HCT-15 = test system: HCT-15
UACC-62 = test system: UACC-62
SF-295 = test system: SF-295
K562 = test system: K562
CCRF-CEM = test system: CCRF-CEM
NCI-H23 = test system: NCI-H23

SMILES: Cc1cc(S(=O)(=O)Nc2nc(-c3ccccn3)n[nH]2)c(S)cc1Cl
- GI50 (NCI-H226): 12.3 µM (inactive)
- GI50 (MDA-N): 42.2 µM (inactive)
- GI50 (SNB-75): 28.1 µM (inactive)
- GI50 (MDA-MB-435): 25.1 µM (inactive)
- GI50 (NCI-H460): 10.6 µM (inactive)
- GI50 (ACHN): 15.8 µM (inactive)
- GI50 (SNB-19): 16.9 µM (inactive)
- GI50 (SK-MEL-2): 10.3 µM (inactive)
- GI50 (SK-MEL-28): 35.1 µM (inactive)
- GI50 (OVCAR-8): 11 µM (inactive)
- GI50 (COLO 205): 25.9 µM (inactive)
- GI50 (HOP-92): 19 µM (inactive)
- GI50 (UACC-257): 30.9 µM (inactive)
- GI50 (RXF 393): 17.4 µM (inactive)
- GI50 (SW-620): 12.2 µM (inactive)
- GI50 (DU-145): 19.2 µM (inactive)
- GI50 (SF-268): 17.7 µM (inactive)
- GI50 (HL-60): 16.1 µM (inactive)
- GI50 (PC-3): 31.1 µM (inactive)
- GI50 (Hs-578T): 28.8 µM (inactive)
- GI50 (Malme-3M): 18.1 µM (inactive)
- GI50 (MCF7): 31.3 µM (inactive)
- GI50 (HOP-62): 9.75 µM (inactive)
- GI50 (UO-31): 2.67 µM (inactive)
- GI50 (U-251): 13.3 µM (inactive)
- GI50 (MOLT-4): 22.7 µM (inactive)
- GI50 (KM12): 20.4 µM (inactive)
- GI50 (T47D): 15.3 µM (inactive)
- GI50 (NCI/ADR-RES): 6.5 µM (inactive)
- GI50 (HCC 2998): 15 µM (inactive)
- GI50 (SK-MEL-5): 8.55 µM (inactive)
- GI50 (RPMI-8226): 33.7 µM (inactive)
- GI50 (TK-10): 10 µM (inactive)
- GI50 (OVCAR-5): 15.5 µM (inactive)
- GI50 (786-0): 12.1 µM (inactive)
- GI50 (M14): 15.2 µM (inactive)
- GI50 (EKVX): 16.1 µM (inactive)
- GI50 (SK-OV-3): 12.9 µM (inactive)
- GI50 (CAKI-1): 5.21 µM (inactive)
- GI50 (SF-539): 21.7 µM (inactive)
- GI50 (BT-549): 17.9 µM (inactive)
- GI50 (SN12C): 36.2 µM (inactive)
- GI50 (A498): 16.9 µM (inactive)
- GI50 (NCI-H522): 27.4 µM (inactive)
- GI50 (HT-29): 15.3 µM (inactive)
- GI50 (IGROV-1): 25.3 µM (inactive)
- GI50 (OVCAR-4): 18.6 µM (inactive)
- GI50 (A549): 12.9 µM (inactive)
- GI50 (MDA-MB-231): 29.2 µM (inactive)
- GI50 (HCT-116): 16.1 µM (inactive)
- GI50 (SR): 24.3 µM (inactive)
- GI50 (LOX IMVI): 27.2 µM (inactive)
- GI50 (OVCAR-3): 17.2 µM (inactive)
- GI50 (HCT-15): 5.68 µM
- GI50 (UACC-62): 7.96 µM (inactive)

SMILES: COc1cc(C2C3=C(COC3=O)Oc3cc4c(cc32)OCO4)ccc1O (stereo not drawn)
- GI50 (NCI-H226): 9.55 µM (inactive)
- GI50 (MDA-N): 0.11 µM (active)
- GI50 (SNB-75): 0.225 µM (active)
- GI50 (MDA-MB-435): 0.0552 µM (active)
- GI50 (NCI-H460): 0.308 µM (active)
- GI50 (ACHN): 0.653 µM (active)
- GI50 (SNB-19): 0.333 µM (active)
- GI50 (SF-295): 0.127 µM (active)
- GI50 (SK-MEL-2): 0.543 µM (active)
- GI50 (SK-MEL-28): 0.847 µM (active)
- GI50 (OVCAR-8): 0.69 µM (active)
- GI50 (COLO 205): 0.225 µM (active)
- GI50 (HOP-92): 3.59 µM (inactive)
- GI50 (RXF 393): 0.306 µM (active)
- GI50 (SW-620): 0.329 µM (active)
- GI50 (DU-145): 0.514 µM (active)
- GI50 (SF-268): 2.07 µM (inactive)
- GI50 (K562): 0.148 µM (active)
- GI50 (HL-60): 0.182 µM (active)
- GI50 (PC-3): 0.167 µM (active)
- GI50 (Hs-578T): 0.329 µM (active)
- GI50 (Malme-3M): 0.174 µM (active)
- GI50 (MCF7): 0.277 µM (active)
- GI50 (HOP-62): 0.394 µM (active)
- GI50 (UO-31): 0.327 µM (active)
- GI50 (U-251): 0.467 µM (active)
- GI50 (MOLT-4): 0.543 µM (active)
- GI50 (KM12): 0.262 µM (active)
- GI50 (T47D): 0.49 µM (active)
- GI50 (NCI/ADR-RES): 0.242 µM (active)
- GI50 (HCC 2998): 0.893 µM (active)
- GI50 (CCRF-CEM): 0.352 µM (active)
- GI50 (SK-MEL-5): 0.0728 µM (active)
- GI50 (RPMI-8226): 0.372 µM (active)
- GI50 (TK-10): > 100 µM (inactive)
- GI50 (OVCAR-5): 3.78 µM (inactive)
- GI50 (786-0): 0.481 µM (active)
- GI50 (M14): 0.439 µM (active)
- GI50 (EKVX): 1.05 µM (active)
- GI50 (SK-OV-3): 0.302 µM (active)
- GI50 (CAKI-1): 0.0445 µM (active)
- GI50 (SF-539): 0.281 µM (active)
- GI50 (BT-549): 1.1 µM (active)
- GI50 (SN12C): 2.69 µM (inactive)
- GI50 (A498): 0.668 µM (active)
- GI50 (NCI-H23): 0.65 µM (active)
- GI50 (NCI-H522): 0.0792 µM (active)
- GI50 (HT-29): 0.359 µM (active)
- GI50 (IGROV-1): 0.509 µM (active)
- GI50 (OVCAR-4): 0.321 µM (active)
- GI50 (A549): 0.41 µM (active)
- GI50 (MDA-MB-231): 0.818 µM (active)
- GI50 (HCT-116): 0.448 µM (active)
- GI50 (SR): 0.252 µM (active)
- GI50 (LOX IMVI): 0.601 µM (active)
- GI50 (OVCAR-3): 0.189 µM (active)
- GI50 (HCT-15): 0.476 µM
- GI50 (UACC-62): 0.356 µM (active)
